Columns and labels:
Type in all cases: in vivo
[1] = Sweetness comparison procedure against sucrose reference solutions, trained sensory evaluators; settings: determined at approximately 8% SEV
Experimental: The S,S stereoisomer of monatin is approximately 50-200 times sweeter than sucrose by weight. The R,R stereoisomer of monatin is approximately 2000-2400 times sweeter than sucrose by weight. The sweetness of the monatin is calculated using experienced sensory evaluators in a sweetness comparison procedure, where a test sweetener solution is matched for sweetness intensity against one of a series of reference solutions. The solutions may be prepared, for example, using a buffer comprising 0.16% (w/v) citric acid and 0.02% (w/v) sodium citrate at ˜pH 3.0.
Specifically, one may assess sweetness of a sweetener relative to sucrose by using a panel of trained sensory evaluators experienced in the sweetness estimation procedure. All samples (in same buffers) are served in duplicate at a temperature of 22° C. ±1° C. Sample solutions may be prepared, for example, using a buffer comprising 0.16% (w/v) citric acid and 0.02% (w/v) sodium citrate at ˜pH 3.0. Test solutions, coded with 3 digit random number codes, are presented individually to panelists, in random order. Sucrose reference standards, ranging from 2.0-10.0% (w/v) sucrose, increasing in steps of 0.5% (w/v) sucrose are also provided. Panelists are asked to estimate sweetness by comparing the sweetness of the test solution to the sucrose standards. This is carried out by taking 3 sips of the test solution, followed by a sip of water, followed by 3 sips of sucrose standard followed by a sip of water, etc. Panelists estimate the sweetness to one decimal place, e.g., 6.8, 8.5. A five minute rest period is imposed between evaluating the test solutions. Panelists are also asked to rinse well and eat a cracker to reduce any potential carry over effects.
Sucrose equivalent value (SEV) (e.g., % sucrose), determined by the panel of trained sensory evaluators, is plotted as a function of monatin concentration to obtain a dose response curve. A polynomial curve fit is applied to the dose response curve and used to calculate the sweetness intensity or potency at a particular point, e.g., 8% SEV, by dividing the sucrose equivalent value (SEV) by the monatin concentration (e.g., % monatin). See e.g., FIG. 15 (R,R/S,S monatin dose response curve); FIG. 14 (R,R monatin dose response curve). The above-mentioned sweetness intensities for S,S and R,R monatin (i.e., approximately 50-200 times sweeter and approximately 2000-2400 times sweeter than sucrose by weight, respectively) were determined at approximately 8% SEV.

[2] = Time intensity profile in a soft drink system; settings: 80 ppm monatin, 10.0% sucrose, 200 ppm sucralose, pH 3.2 model soft drink; for Intensity of Maximum Sweetness: scale 0-100
Experimental: Solutions of 80 ppm monatin (racemic mix of monatin described in Example 14), 10.0% (w/v) sucrose and 200 ppm sucralose were prepared in the pH 3.2 model soft drink system described in Example 14. The time intensity profile of these solutions then was assessed using the following procedure. Six panelists were included in the study. These panelists were screened for their general sensory acuity and selected for their sensitivity to sweetness intensity and sweetness quality differences. All were experienced in methods of sweetener assessment and had received special training in time intensity evaluations. Training sessions were carried out initially to familiarize the panel with the method of evaluation and scoring the samples over time using a computerized data entry system.
Samples of each solution (13 mL) were coded and presented individually to panelists, in random order. For each panelist, immediately after swallowing, the computer recorded timed intensity readings on the scale of 0-100 each second, up to 60 seconds. Each solution was evaluated in duplicate.

[3] = Taste profiling of lemon/lime carbonates and colas; settings: HFCS 10%, aspartame 500 ppm, sucralose 200 ppm, blends 30.8 ppm/5.0%; for Average Score: score 1, poor-5, good, sucrose 10%
Experimental: Cola and lemon/lime beverages were prepared using the following formulations and sweetened with sucrose, HFCS (55% fructose), aspartame, sucralose, monatin (racemic mix described in Example 14), monatin/sucrose, or monatin/HFCS. One part of syrup was added to 5.5 parts carbonated water and evaluated.
Assessments were carried out ‘double blind’ by a panel of trained tasters. The sucrose-sweetened product was identified as the control and all other products randomly coded. Panelists were asked to assess the randomly coded sample relative to the control for the following attributes:
Panelists also were asked assign a score (1; poor-5; good) for the quality of the sweetener system. A summary of the comments generated together with the average score awarded is presented in Tables 12 and 13 for lemon/lime carbonates and colas, respectively. […] Blends of monatin/carbohydrate rated higher. In the cola, monatin was similar to aspartame.

[4] = Sensory evaluation of sweeteners in coffee and iced tea; settings: 200 mL serving
Experimental: Monatin sweetener formulations, comprising R,R monatin or R,R monatin/erythritol combinations, were assessed relative to other known sweeteners (aspartame and sucralose) in coffee and iced tea. The key sensory parameters assessed included sweetness quality, aftertaste, bitter taste and its aftertaste. Qualitative evaluation was carried out.
Standard coffee was used in which to evaluate sweetener performance (Table 17).
Sweeteners were added to coffee at the following concentrations:
An ice tea formulation was developed to evaluate sweetener performance (Table 18).
Sweeteners were added to tea at the following concentrations:
The evaluation of these coffee and tea drinks was carried out by a panel (n=6) of experienced sensory evaluators who evaluated the coffee products on one tasting occasion and the tea products on a subsequent occasion.

[5] = Sensory evaluation of soft drinks (lemon/lime, orangeade, cola)
Experimental: Beverages (cola, lemon-lime and orange) were formulated and sweetened with aspartame, sucralose or R,R monatin. Qualitative evaluation was carried out.
The term “throw” refers to dilution in water. For example, a throw of “1+4” means 1 part concentrate formulation to 4 parts water. Thus, if a concentrate formulation includes 0.021% wt/vol (i.e., 210 ppm) of R,R monatin, for example, a throw of 1+4 makes a diluted beverage containing 42 ppm (210 ppm/5) R,R monatin.
Final ready-to-drink beverages (after throw) contained sweetener concentrations as follows:
Evaluation of these soft drinks was carried out by a panel (n=6) of assessors who evaluated each set of drinks on separate tasting occasions.

[6] = Taste profiling of monatin/carbohydrate blends
Experimental: The quality of equisweet monatin/carbohydrate (50:50) blends then was assessed relative to sucrose by a small panel of trained assessors. This evaluation was carried out “double blind.” The sucrose-sweetened system was identified as the control and all other products randomly coded. Panelists were asked to assess the randomly coded sample relative to the control for the following attributes: Sweetness Profile: Onset, build and decay; Flavor Profile: Acidity, bitterness and other characteristics; Mouthfeel; and Aftertaste. Panelists also were asked to assign a score (1; poor-5; good) for the quality of the sweetener system. A summary of the comments made and scores given is presented as Table 10.

[7] = cola, sucrose 10% (control), monatin 80 ppm
[8] = lemon/lime carbonate, sucrose 10% (control), monatin 67 ppm
[9] = lemon/lime carbonate, monatin 67 ppm
[10] = equisweet monatin/carbohydrate (50:50) blends relative to sucrose control

| SMILES | times sweeter than sucrose by weight [1] | Area Under Curve [2] [unit × s] | Rate of Decline [2] [unit/s] | Rate of Onset [2] [unit/s] | Time for Sweetness to Decline to Half Maximum Value [2] [s] | Time to Half Maximum Sweetness [2] [s] | Time to Maximum Sweetness [2] [s] | Intensity of Maximum Sweetness [2] [unit] | Flavor Profile [3, 7] | Aftertaste [3, 8] | Flavor Profile [3, 8] | Average Score ([3]; cola, monatin 80 ppm) | Average Score [3, 9] | further results |
| --- | --- | --- | --- | --- | --- | --- | --- | --- | --- | --- | --- | --- | --- | --- |
| NC(CC(O)(Cc1c[nH]c2ccccc12)C(=O)O)C(=O)O (stereo not drawn) [R,R monatin, 2-hydroxy-2-(indol-3-ylmethyl)-4-aminoglutaric acid] | 2000-2400 times | – | – | – | – | – | – | – | – | – | – | – | – | times sweeter than sucrose by weight ([1]; listed as R,R): 2000-2400 times; times sweeter than sucrose by weight ([1]; listed as R,R stereoisomer): 2000-2400 times |
| NC(CC(O)(Cc1c[nH]c2ccccc12)C(=O)O)C(=O)O (stereo not drawn) [S,S monatin, 2-hydroxy-2-(indol-3-ylmethyl)-4-aminoglutaric acid] | 50-200 times | – | – | – | – | – | – | – | – | – | – | – | – | times sweeter than sucrose by weight ([1]; listed as S,S): 50-200 times; times sweeter than sucrose by weight ([1]; listed as S,S stereoisomer): 50-200 times |
| OC[C@H]1O[C@H](O[C@]2(CCl)O[C@H](CCl)[C@@H](O)[C@@H]2O)[C@H](O)[C@@H](O)[C@H]1Cl [Sucralose, sucralose] | – | 119.7 | 2.1 | 16.0 | 33.1 | 2.6 | 8.0 | 64.6 | Sweet flavor, slightly | Slight licorice note | Zesty and refreshing | 3.8 | 4.1 | Aftertaste [3, 7]: Some sweetness; Mouthfeel [3, 7]: Slightly thinner than; Comments (sensory evaluation) ([4]; Coffee, aspartame 250 ppm, sucralose 82 ppm, R,R monatin 25 ppm + maltodextrin or erythritol (1 g, 0.5%)): Slow sweetness onset allows stronger; Comments (sensory evaluation) ([4]; Iced Tea, aspartame 450 ppm, sucralose 170 ppm, R,R monatin 40 ppm + maltodextrin or erythritol (1 g, 0.5%)): Delay in sweetness onset means first; Comments (sensory evaluation) ([5]; Cola, aspartame 550 ppm, sucralose 220 ppm, R,R monatin 45 ppm): Delay in sweetness onset means first; Comments (sensory evaluation) ([5]; Lemon/lime soft drink, aspartame 500 ppm, sucralose 200 ppm, R,R monatin 42 ppm): Slow sweetness onset allows stronger; Comments (sensory evaluation) ([5]; Orangeade, aspartame 550 ppm, sucralose 220 ppm, R,R monatin 45 ppm): Delay in sweetness onset means first |
| OC[C@H]1O[C@@](CO)(O[C@H]2O[C@H](CO)[C@@H](O)[C@H](O)[C@H]2O)[C@@H](O)[C@@H]1O [Sucrose, sucrose] | – | 116.9 | 2.3 | 17.9 | 24.9 | 2.3 | 8.0 | 64.1 | Sweet, rounded, warm | Slight bitterness and | Soft, balanced | 4.5 | 4.8 | Aftertaste [6, 10]: Slight lingering; Flavor Profile [6, 10]: Pleasant, citrus; Mouthfeel [6, 10]: Full, syrupy; Sweetness Profile [6, 10]: Fast onset and build; Average Score ([6]; score 1, poor-5, good, equisweet monatin/carbohydrate (50:50) blends, sucrose control): 4.0 |

Reference: patent publication US20050106305A1, “Beverage compositions comprising monatin and methods of making same” (Cargill, Inc., priority 2003, published 2005)
